Holding throughout (assay): NCI-60 cell line screen, 48 h
Assay [1] deals with A549 NSCLC.
Assay [2] has as its system CCRF-CEM leukemia.
For assay [3], the system named is COLO 205 colon.
For assay [4], the system named is HCT-116 colon.
In assay [5] the test system is HT29 colon.
The test system of assay [6] is K-562 leukemia.
In assay [7] the test system is KM12 colon.
Assay [8] concerns LOX IMVI melanoma.
Assay [9] deals with SK-MEL-2 melanoma.
The test system of assay [10] is SNB-19 CNS.

SMILES strings stand for the structures.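 Tested at 5 concentrations; 48 h exposure; 96-well plates; endpoints linearly interpolated, else capped at highest concentration. GI50 = concentration required for 50% inhibition of growth. TGI: concentration producing complete growth inhibition.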 A value given as a limit tells only on which side of the number the result lay.

`COc1cnc2cc(C(=O)O)c3ccccc3c2c1`: the TGI in assay [1], in assay [2], in [3], in assay [4], in assay [5] and in assay [6] was above 100 µM each time. For the same molecule, the TGI in [7], in assay [8], in assay [9] and in assay [10] was above 100 µM each time.

As for `COC1(OC)c2no[n+]([O-])c2C(OC)(OC)c2c1no[n+]2[O-]`, the TGI in assay [1] was 82 µM; in [2], 60.4 µM; in assay [3], 28.5 µM; in assay [4] it was 24.6 µM; in assay [5], 37.7 µM; in [6] it was above 100 µM. The TGI in assay [7] came to 24.2 µM; in assay [8], 33.5 µM; in assay [9], 42 µM; in assay [10], 59.5 µM.

As to `CC(=O)C1C(=O)N(C(C)C)C[C@@H]2CCC(=O)C[C@H]12` (some centres not stated), the TGI in assay [1], in [2], in [3], in [4], in assay [5] and in [6] was above 100 µM throughout. For the same molecule, the TGI in [7], in assay [8], in [9] and in assay [10] was above 100 µM throughout.

As for `Cc1cc(Cl)cc2c1NC(=O)C2=O` (tested in a mixture with another compound), the TGI is above 100 µM in assay [1]; 44.9 µM in [2]; above 100 µM in [3]; above 100 µM in [4]; above 100 µM in [5]; above 100 µM in [6]. Moreover, the TGI was above 100 µM in assay [7], 33.2 µM in assay [8], above 100 µM in assay [9] and above 100 µM in assay [10].

For `COc1ccc(CCc2cc(OC)c(OC)c(OC)c2)cc1`, the TGI was 88.8 µM in assay [1]; 12.4 µM in [2]; 0.189 µM in assay [3]; 9.41 µM in [4]; 1.44 µM in [5]; 13.7 µM in assay [6]. Further, the TGI was 5.77 µM in assay [7], 39.5 µM in [8], 24.2 µM in assay [9] and above 100 µM in assay [10].

As to `Oc1ccc(Cl)cc1Cc1cc(Cl)ccc1O`, the GI50 in [1] was 2.95 µM; in assay [2] it was 2.43 µM; in assay [3] it was 13.7 µM; in assay [4] it was 2.6 µM; in [5], 3.55 µM; in [6], 3.3 µM. In addition, the GI50 in assay [7] was 3.06 µM; in assay [8], 2.82 µM; in assay [9], 2.21 µM; in assay [10] it was 3.52 µM. The TGI in assay [1] came to 11.1 µM; in [2] it was 9.79 µM; in [3], 26.8 µM; in [4], 7.08 µM; in assay [5], 10.6 µM; in assay [6] it was 13.7 µM. For the same molecule, the TGI in assay [7] was determined as 11.1 µM; in assay [8], 8.51 µM; in assay [9], 5.02 µM; in assay [10], 15 µM.

`S=c1nc(-c2ccnc(-c3nc(=S)[nH][nH]3)c2)[nH][nH]1`: the TGI in [1], in [2], in assay [3], in [4], in assay [5] and in [6] was above 100 µM in each case. The TGI in assay [7], in assay [8], in assay [9] and in [10] was above 100 µM each time.

Turning to `COC(=O)/C(=N/NC(N)=O)C(C(=O)OC)C(=O)C(=O)Nc1ccc(Cl)cc1` (configuration not stated), the TGI is above 100 µM in assay [1]; above 75.5 µM in assay [2]; above 100 µM in assay [3]; above 100 µM in assay [4]; above 100 µM in assay [5]; above 62.6 µM in assay [6]. Moreover, the TGI in [7], in assay [8], in assay [9] and in [10] was above 100 µM throughout.

`O=c1[nH]c2ccccc2n1-c1n[nH]c2ccccc12`: the GI50 in [1] is 30.8 µM; in assay [2] it was 15.2 µM; in assay [3], 28.7 µM; in [4], 24.6 µM; in assay [5], 37.6 µM; in [6] it was 31.3 µM. Besides, the GI50 is 3.21 µM in assay [7], 17.4 µM in assay [8], 29.3 µM in assay [9] and 56.6 µM in assay [10]. The TGI was above 100 µM in assay [1]; above 100 µM in [2]; above 100 µM in assay [3]; 67.5 µM in [4]; above 100 µM in assay [5]; above 100 µM in [6]. For the same molecule, the TGI in [7] is above 100 µM; in [8] it was 52.5 µM; in assay [9], above 100 µM; in [10] it was above 100 µM.

Consider `COc1ccc2nc3ccccc3c(NCCCCN(C)CCCl)c2c1`, for which the TGI in assay [1] stood at 1.87 µM; in [2], 0.229 µM; in assay [3] it was 0.0789 µM; in assay [4] it was 0.303 µM; in assay [5], 1.46 µM; in [6], 0.93 µM. Moreover, the TGI in assay [7] worked out at 0.4 µM; in [8], 0.539 µM; in [9], 0.666 µM; in assay [10], 0.707 µM.

Regarding `COc1ccccc1NC(=O)C(CC(C(=O)Nc1ccccc1OC)/C(C)=N/Nc1ccc([N+](=O)[O-])cc1[N+](=O)[O-])/C(C)=N/Nc1ccc([N+](=O)[O-])cc1[N+](=O)[O-]` (configuration not stated), the TGI in assay [1], in assay [2], in [3], in assay [4], in assay [5] and in assay [6] was above 100 µM each time. Also, the TGI in assay [7], in assay [8], in [9] and in assay [10] was above 100 µM throughout.

Consider `COc1cc2cc3c4c(cc(OC)c(OC)c4c2cc1OC)CCN3C(=O)CCC(=O)NCCCN(C)C`, for which the TGI was above 100 µM in assay [1]; 88.2 µM in assay [2]; above 100 µM in assay [3]; above 100 µM in assay [4]; 51.7 µM in [5]; above 100 µM in assay [6]. Further, the TGI in assay [7] was above 100 µM; in assay [8] it was 27.3 µM; in assay [9], 41.9 µM; in [10], above 100 µM.

On to `O=C1c2ccccc2C(=O)c2nc3ccc(Cl)cc3cc21`, for which the TGI in assay [1], in assay [2], in assay [3], in assay [4], in [5] and in [6] was above 100 µM throughout. Also, the TGI in [7], in assay [8], in [9] and in assay [10] was above 100 µM throughout.

On to `CCSC(SCC)=C1C(=O)N(c2ccccc2)N=C1C`, for which the TGI in assay [1] was determined as 35.1 µM; in assay [2] it was 11 µM; in assay [3], 7.08 µM; in assay [4] it was 28.3 µM; in assay [5] it was 39.4 µM; in assay [6] it was 23.3 µM. In addition, the TGI is 35.3 µM in assay [7], 26.4 µM in [8], 33 µM in [9] and 62.8 µM in assay [10].

On to `O=C(Nc1ccccc1C(=O)N/N=C(\c1ccccc1)c1ccccn1)c1ccc(F)cc1`, for which the GI50 in assay [1] was 0.451 µM; in assay [2], 0.121 µM; in assay [3], 0.215 µM; in assay [4], 0.266 µM; in assay [5], 0.165 µM; in assay [6], 0.519 µM. Also, the GI50 is 0.421 µM in [7], 0.247 µM in assay [8], 7.01 µM in assay [9] and 0.502 µM in [10]. In addition, the TGI in assay [1], in [2], in [3], in assay [4], in assay [5] and in [6] was above 100 µM throughout. Besides, the TGI in [7], in assay [8], in [9] and in assay [10] was above 100 µM each time.

For the molecule `Nc1ccc(S(=O)(=O)Nc2cnc3c(Cl)cccc3n2)cc1`, the TGI was above 750 µM in assay [1]; above 657 µM in assay [2]; 193 µM in assay [3]; 609 µM in assay [4]; above 750 µM in [5]; above 750 µM in assay [6]. The TGI in assay [7] was 709 µM; in [8], above 736 µM; in [9], 707 µM; in assay [10] it was 620 µM. Besides, the GI50 in assay [3] is above 74.3 µM; in assay [4] it was 14.7 µM; in assay [5], above 82.8 µM; in assay [6] it was 36.4 µM; in [7] it was 99.6 µM; in assay [8] it was above 20.2 µM. Further, the GI50 in assay [10] was above 77.5 µM.

The values above are taken from PubChem BioAssay (NCI).
